{
  "source": "patent US20250114337A1",
  "about": "“METHODS FOR VASCULAR REGENERATION AND WOUND TREATMENT” (THE METHODIST HOSPITAL, priority 2022, published 2025)",
  "key": {"[1]": {"test_system": "ischemic hindlimb mice model", "assay": "hindlimb ischemia recovery in WT C57BL/6 mice, laser doppler imaging", "type": "in vivo, mouse", "conditions": "OSMI4 10 mg/kg 0, 1, 2 days post-surgery; younger mice (8 to 12 weeks)", "procedure": "O-GlcNAcylation manipulations regulated recovery from tissue ischemia. To determine if the change in O-GlcNAcylation can modulate limb ischemia recovery, and contributes to vascular recovery, WT C57BL/6 mice were treated with the O-GlcNAcylation inhibitor, OSMI4, or O-GlcNAcylation enhancer, TMG 0, 1, 2 days post-surgery. Age is an important factor that determines recovery, and younger mice are known to have a more robust angiogenic response as compared with older mice. Accordingly, younger mice (between 8 to 12 weeks) were used to assess the impairment of angiogenesis by OSMI (which reduces O-GlcNAcylation). Older mice (around 20 weeks) were used to assess the enhancement of angiogenesis by TMG (which increases O-GlcNAcylation). […] It will be determined whether this beneficial effect is mediated by increased DNA accessibility and enhanced transdifferentiation.\nTo determine if O-GlcNAcylation manipulations can modulate the overall effect of vascular recovery from limb ischemia. WT C57BL/6 mice were treated with the O-GlcNAcylation inhibitor. OSMI4 (10 mg/kg), or O-GlcNAcylation enhancer. TMG (10 mg/kg) 0, 1, 2 days post-surgery (FIG. 19A)."}, "[2]": {"test_system": "BJ fibroblasts", "assay": "in vitro transdifferentiation of fibroblasts to induced endothelial cells (iECs)", "type": "cell-based, human", "conditions": "fibroblasts exposed during transdifferentiation protocol", "description": "Innate immune activation is required for transdifferentiation. […] 131 (3): p. 300-9). iECs generated from this protocol manifest high fidelity for endothelial lineage. They incorporate acetylated LDL (FIG. 2B), form tubular networks (FIG. 2C), have similar transcriptomes as genuine endothelial cells, and increase capillary density and perfusion when injected into the ischemic hindlimb of the mouse (FIG. 2D) (Sayed, N., et al., Circulation, 2015. 131 (3): p. 300-9). This protocol can be utilized to study the role of O-GlcNAcylation in transdifferentiation in vitro.\nO-GlcNAcylation is required for in vitro transdifferentiation. To define if the elevation of O-GlcNAcylation is required for transdifferentiation, fibroblasts were exposed to Thiamet G (TMG) (an OGA inhibitor that enhances O-GlcNAcylation) or DON (an inhibitor for GFAT that acts upstream in the hexosamine biosynthesis pathway and reduces O-GlcNAcylation). The number of iECs generated during transdifferentiation is increased when fibroblasts are exposed to TMG and decreased when exposed to DON (FIG. 5A). […] The role of O-GlcNAcylation of specific epigenetic regulars e.g., HIRA during transdifferentiation can also be addressed.\nTo define if the elevation of O-GlcNAcylation is required for transdifferentiation, inhibitors of O-GlcNAcylation including OSMI (an inhibitor for OGT) and DON (an inhibitor for GFAT that acts upstream in the hexosamine biosynthesis pathway and reduces O-GlcNAcylation) or an activator of O-GlcNAcylation. Thiamet G (TMG) (an OGA inhibitor that enhances O-GlcNAcylation), were delivered to BJ fibroblasts undergoing transdifferentiation. The number of CD31 expressing iECs generated during transdifferentiation decreases when exposed to OSMI or DON and increases when fibroblasts are exposed to TMG (FIG. 17B). Then OGT or OGA were knocked down using shRNA in the BJ fibroblasts (FIG. 17C) and performed transdifferentiation protocol in vitro."}, "[3]": {"test_system": "H3.3 deposition", "assay": "H3.3-SNAP tagging, quench-chase-pulse TMR-Star labeling", "type": "cell-based", "conditions": "Poly I:C + OSMI", "description": "To identify the role of O-GlcNAcylation of histone variant h3.3 chaperone protein, HIRA, on transdifferentiation. The effects of O-GlcNAcylation on proteins that may be involved in the epigenetic regulation of transdifferentiation can be assessed. Nucleosome turnover is known to be tightly interrelated with DNA accessibility, and histone variant h3.3 is a hallmark of regulatory regions in the mammalian genome and is required to establish open chromatins. HIRA is the chaperone for h3.3, it forms a complex with other subunits, including ASF1. UBN, and CABIN, and is responsible for h3.3 deposition on the chromatin. OGT interacts with and O-GlcNAcylates HIRA, both of which are critical for the formation of the HIRA-h3.3 complex and h3.3 deposition and its dependent gene activation. […] The role of HIRA in transdifferentiation with fibroblasts that have HIRA knocked down or overexpressed can be determined. […] Thereafter, the de novo deposited SNAP-h3.3 will be pulse-labeled with the TMR-Star, which is a readily detectable and quantifiable red-fluorescent substrate. […]\nTo test whether innate immune activation enhances the H3.3 deposition in the chromatin, the H3.3-SNAP tagging system was generated where the newly synthesized H3.3 will be detected by fluorescent TMR-Star labeling with quench-chase-pulse strategy."}},
  "note": "“Also recorded” adds a separate entry of the source.",
  "data": [
    {"smiles": "CCOC(=O)CN(Cc1cccs1)C(=O)[C@H](NS(=O)(=O)c1cc2ccc(=O)[nH]c2cc1Cl)c1ccccc1OC", "note": "[OSMI]", "values": [
      {"measurement": "recovery of blood flow post femoral artery ligation (revascularization)", "setting": "[1]", "result": "impaired recovery; also recorded: impairs"},
      {"measurement": "iEC yield (number of CD31 expressing iECs generated during transdifferentiation)", "setting": "[2]", "result": "decreases; also recorded: impair"},
      {"measurement": "Poly I:C-enhanced H3.3 deposition", "setting": "[3]", "result": "impaired"}
    ]}
  ]
}
